From patent publication US20150269307A1, “TARGET INHIBITION MAP SYSTEM FOR COMBINATION THERAPY DESIGN AND METHODS OF USING SAME” (Texas Tech University System, priority 2014, published 2015)

Assays:
DIPG neurospheres [1] = assay: cells; conditions: for viability at 10 µM: read-out: cell viability (cytocidal)
Experimental: Primary cultures of DIPG neurospheres were added to 384 well plates pre-plated with 60 known drugs in an increasing gradient of concentrations. […] To complete this drug screen, primary cultures of nestin […] 53 deficient DIPG neurospheres were added to plates with 60 known drug samples in an increasing gradient of concentrations.

[2] = system: human patient-derived xenografts; assay: Xenograft-derived chemical screen (Supplemental Table 3); assay type: cell-based
Experimental: Three chemical screens were applied to the U23674 primary tumor cell culture. […] The target inhibition profile is a quantified description of the inhibitory properties of the compound on the numerous protein targets preset on the PPTI screen.
To screen the chemical agents, cell cultures were plated in 384 well plates at a seeding density of 2000 cells per well over graded concentrations of the numerous compounds. The chemical concentrations were between 10 nM and […] depending on the activity range of the compounds. The cells were incubated in DMEM supplemented with 1% penicillin streptomycin, and 10% fetal bovine serum for 72 hours. Chemical sensitivity was determined by an MTS cell viability assay after the 72 hour incubation period. The sensitivity responses at the different concentrations were used to determine the chemical IC50 using a hill curve fitting algorithm with variable hill slope coefficients.

DIPG neurospheres [3] = assay: Cellular viability assay (CellTiter-Glo Luminescent Cell Viability Assay); assay type: cell-based, mouse; conditions: 48 hours
Experimental: (§1) A bromodeoxyuridine (BrdU) based cell proliferation ELISA assay kit (Roche) was used for proliferation and processed according to the manufacturer's protocol. […] Viability was measured with CellTiter-Glo Luminescent Cell Viability Assay (# G7572, Promega) per manufacturer's protocol, luminescence values were obtained using Turner Biosystems Modulus Microplate luminometer (model 9300-062). All values are given as mean+/−SD of at least 3 independent experiments.

DIPG-bearing mice = assay type: in vivo
Experimental: All experiments were performed under the Institutional Animal Care and Use Committee and Institutional Review Board of Duke University approved protocol (A239-10-9 and A214-13-8). Mice were maintained under barrier conditions. Nestin tv-a (Ntv-a) p53^fl/fl mice were injected with DF1 cells expressing RCAS-PDGF-B+RCAS-Cre as described above. Three weeks post injection; […]. Mice were treated with 25 mg/kg BID for 6 doses. Loss of 25% of body weight, lethargy, head tilt, or seizure development was used as euthanasia criteria during the treatment window. Four hours after completion of the 6th dose, treated animals were euthanized and tumor tissue was extracted as described above.
Tumor samples embedded in paraffin were then sectioned on a Leica RM2235 microtome at […] thickness. Immunohistochemistry was performed using Discovery XT (Ventana Medical Systems). Sections were immunostained for cleaved caspase 3 (Asp175) (Cell Signaling #9661) and anti-phospho-histone H3 (Ser10) (Millipore 06-570) to allow for evaluation of apoptosis and proliferation, respectively.
Image analysis was completed using MetaMorph 6.1 software (Universal Imaging Corp.; Downingtown, Pa.) to quantify immunostaining on previously imaged sections for each injected animal. These images were thresholded using the HSI color representation method in the Set Color Threshold window. This method has previously been validated by Maximova et. al.. This is a multidimensional evaluation of the hue, saturation, and intensity of each individual pixel making up an image with a range from 0-255. Once color thresholds had been established that were able to define all nucleated cells and only positively labeled cells, each of the ten images per injected animal were quantified for (per 40× high powered field): total nucleated cell area, total nucleated cell count, total positive cell area, total positive cell count. […] The averages for each animal of each of these parameters were then transferred to GraphPad Prism 5 software (GraphPad Software, San Diego, Calif.) where a Mann-Whitney-U t-test was performed on each analyzed parameter to determine statistical significance.

U23674 cells = assay: Four-arm orthotropic allograft study, survival; assay type: in vivo, mouse; conditions: 50 mg/kg OSI-906, 150 mg/kg GDC-0941, oral gavage; compared to vehicle and other arms
Experimental: This engraftment was performed after damaging the right leg via cardiotoxin as previously described. Treatment commenced two days after engraftment. Dosing schedule was once daily by oral gavage up to day 5, at which time dosing was performed every other day. The endpoint for the study and survival analysis was tumor volume=1.4 cc.

IGF-1R = target: T1, IGF-1R (Mus musculus, UniProt Q60751); assay: Western blot analysis of phospho-IGF-1R after IGF-1 stimulation; assay type: cell-based; conditions: 4 hours of drug exposure at 1 μM and higher
T1 construct: endogenous in cells; host or cells: murine DIPG neurospheres (Ntv-a p53 deficient, PDGF-B driven)
T1 sequence (Q60751 31-1373): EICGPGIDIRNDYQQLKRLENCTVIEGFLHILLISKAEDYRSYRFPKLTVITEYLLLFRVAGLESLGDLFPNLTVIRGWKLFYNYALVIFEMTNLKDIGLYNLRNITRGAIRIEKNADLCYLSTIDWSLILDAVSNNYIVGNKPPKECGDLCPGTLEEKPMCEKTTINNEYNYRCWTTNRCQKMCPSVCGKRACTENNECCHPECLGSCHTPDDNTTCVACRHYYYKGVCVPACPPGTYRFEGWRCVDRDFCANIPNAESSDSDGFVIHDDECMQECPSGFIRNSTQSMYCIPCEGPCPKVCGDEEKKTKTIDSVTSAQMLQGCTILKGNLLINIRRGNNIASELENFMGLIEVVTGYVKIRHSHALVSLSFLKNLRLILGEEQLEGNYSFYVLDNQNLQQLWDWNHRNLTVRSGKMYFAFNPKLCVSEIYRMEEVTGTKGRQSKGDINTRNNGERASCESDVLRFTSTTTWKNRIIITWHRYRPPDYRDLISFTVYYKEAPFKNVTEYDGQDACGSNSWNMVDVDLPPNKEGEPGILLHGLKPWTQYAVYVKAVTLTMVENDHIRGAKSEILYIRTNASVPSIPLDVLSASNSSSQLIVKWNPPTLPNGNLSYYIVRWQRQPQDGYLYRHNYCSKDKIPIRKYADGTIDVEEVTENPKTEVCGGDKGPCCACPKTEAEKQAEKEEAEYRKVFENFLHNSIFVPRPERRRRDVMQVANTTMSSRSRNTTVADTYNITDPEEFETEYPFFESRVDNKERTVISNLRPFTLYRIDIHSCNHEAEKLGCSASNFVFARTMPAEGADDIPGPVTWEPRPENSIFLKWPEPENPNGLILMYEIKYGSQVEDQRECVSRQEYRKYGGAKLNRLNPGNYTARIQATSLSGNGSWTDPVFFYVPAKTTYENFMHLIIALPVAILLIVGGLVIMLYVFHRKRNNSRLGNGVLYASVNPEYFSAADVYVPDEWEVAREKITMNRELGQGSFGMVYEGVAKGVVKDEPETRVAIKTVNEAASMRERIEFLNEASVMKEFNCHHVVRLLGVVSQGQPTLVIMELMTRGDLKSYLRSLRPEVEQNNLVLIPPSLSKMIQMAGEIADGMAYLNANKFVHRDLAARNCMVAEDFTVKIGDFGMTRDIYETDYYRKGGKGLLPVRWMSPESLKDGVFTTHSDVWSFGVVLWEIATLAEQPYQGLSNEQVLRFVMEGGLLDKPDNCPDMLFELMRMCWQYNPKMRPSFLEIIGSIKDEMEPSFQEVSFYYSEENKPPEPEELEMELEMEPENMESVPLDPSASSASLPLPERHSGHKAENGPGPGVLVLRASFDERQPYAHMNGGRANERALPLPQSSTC
Experimental: (§2) IGF-1R ligand was added at 10 nmol/L concentration for 15 minutes prior to cell collection. […] Protein concentrations of total cell lysates or total tissue lysates were determined using BCA assay kit (Pierce). Lysates were resolved by SDS-PAGE (Invitrogen) and transferred to nitrocellulose membranes (Bio-Rad Laboratories). […] All antibodies were purchased from Cell Signaling except Actin, which was purchased from Santa Cruz Biotech. Membranes were incubated with the appropriate labeled secondary antibodies, and protein was visualized and quantified using Li-Cor Biosciences Odyssey Infrared Imaging system (Li-Cor Biosciences). Inhibition was calculated by comparing the ratio of phosphorylation signals in untreated versus treated samples after normalization to actin. All values are given as mean+/−SD of at least 3 independent experiments.

DIPG neurospheres [4] = assay: BrdU based cell proliferation ELISA assay; parameters: species or system mouse
Experimental: as §1

AKT = assay: Western blot analysis of phospho-Akt after IGF-1 stimulation; assay type: cell-based, mouse; conditions: 4 hours of drug exposure at 1 μM and higher
Experimental: as §2

[5] = 48 h, read-out: In Vitro Absolute IC50

| SMILES | IC50 (DIPG neurospheres [1]; [5]) | IC50 (DIPG neurospheres [1]; Mus musculus, read-out: in vitro IC50 in the high throughput drug screen) | viability at 10 µM (DIPG neurospheres [1]) | IC50 ([2]; Homo sapiens, read-out: IC50 Value) | concentration giving significant reduction of viability (DIPG neurospheres [3]) | apoptosis, cleaved caspase 3 positive cells (DIPG-bearing mice; 25 mg/kg BID for 6 doses, intraperitoneal, mean, p=0.0435 vs vehicle) | DIPG proliferation, phosphorylated histone-3 (serine 10) positive cells (DIPG-bearing mice; 25 mg/kg BID for 6 doses, intraperitoneal, mean, p=0.8421 vs vehicle) | blood brain barrier crossing (DIPG-bearing mice; mouse, in vivo) | tolerability in mice undergoing treatment (DIPG-bearing mice; mouse, in vivo) | survival of mice (endpoint tumor volume 1.4 cc) (U23674 cells) | reduction in pIGF-1R (IGF-1R) | concentration giving significant inhibition of proliferation (DIPG neurospheres [4]) | IC50 (DIPG neurospheres [4]; Mus musculus, 48 hours, BrdU assay) | reduction in pAKT expression (AKT) | IC50 Value ([2]; 60 agent PPTI screen) | IC50 (DIPG neurospheres [3]; Mus musculus, CellTiter-Glo, read-out: IC50, viability / cytotoxic effects) |
| --- | --- | --- | --- | --- | --- | --- | --- | --- | --- | --- | --- | --- | --- | --- | --- | --- |
| C[C@@]1(C(=O)Nc2ccc(F)nc2)CCCN1c1nc(Nc2cc(C3CC3)n[nH]2)c2cccn2n1 [BMS-754807] | 97.4 nM | 90 nM | < 15% | 1730 nM | ≥ 0.1 µM | 1.063+/−0.1925 percentage of cell per high powered filed | 9.632+/−2.827 percentage of cell per high powered filed | able to cross the blood brain barrier | well tolerated | – | – | – | – | – | – | – |
| CS(=O)(=O)N1CCN(Cc2cc3nc(-c4cccc5[nH]ncc45)nc(N4CCOCC4)c3s2)CC1 [GDC-0941] | – | – | – | – | – | – | – | – | – | no better than survival of mice only treated with vehicle | – | – | – | – | – | – |
| C[C@]1(O)C[C@@H](c2nc(-c3ccc4ccc(-c5ccccc5)nc4c3)c3c(N)nccn32)C1 [OSI-906] | 1740 nM | – | < 15% | – | ≥ 1 µM | – | – | – | – | no better than survival of mice only treated with vehicle | 73% | ≥ 1 µM | 2500 nM | 69% | >conc tested | 2400 nM |
